The values that follow come from patent US8088791B2, “Antibacterial agents” (Biots Scientific Management Pty Ltd, priority 2006, dated 2012).

Assay [1] relates to Bacillus subtilis 168CA. Briefly: Minimum Inhibitory Concentration (MIC) testing, broth microdilution, Bacillus subtilis. Type of assay: cell-based. The note with it: Bacillus subtilis 168CA; read-out: Bacillus subtilis MICs Activity. Here is the method:
(§1) Compounds of this invention were tested for antimicrobial activity by susceptibility testing in liquid media. MICs for compounds against each strain were determined by a broth microdilution method according to the National Committee for Clinical Laboratory Standards (NCCLS) guidelines. (NCCLS. 2000. Methods for dilution antimicrobial susceptibility tests for bacteria that grow aerobically—fifth edition. Approved standard M7-A5. NCCLS, Wayne, Pa.)
(§2) Briefly, test compounds are prepared in 100 μl of 1.6% DMSO solution in multiwell plates. Several bacterial colonies from a freshly streaked plate are transferred to an appropriate rich broth, such as Mueller Hinton. The cell suspension is adjusted to an optical density of 0.09 and further diluted 1:100 with warm 2× broth. This cell suspension is dispensed into the wells containing compound solution so that the final volume is 200 μl. The plates are incubated overnight (16-20 hours) at 37° C. and turbidity is scored by eye and quantified spectrophotometrically. The MIC is defined as the lowest concentration inhibiting visible growth.
Activities were scored as ‘A’ if the MIC was ≦8 micrograms/ml, ‘B’ if the MIC was 16 to 64 micrograms/ml and ‘C’ if the MIC was greater than 64 micrograms/ml.
Background: Dilution methods test growth across graded concentrations, often in twofold steps.

The subject of assay [2] is Staphylococcus aureus ATCC29213. As to the kind of experiment: Minimum Inhibitory Concentration (MIC) testing, broth microdilution, Staphylococcus aureus. Type of assay: cell-based. The note with it: Staphylococcus aureus ATCC29213; read-out: Staphylococcus aureus MICs Activity. Here is the method: as §1, §2
Some of the compounds of the Examples were also tested for activity against the pathogenic organism Staphylococcus aureus ATCC29213. […] Activities were again scored as ‘A’ if the MIC was ≦8 micrograms/ml, ‘B’ if the MIC was 16 to 64 micrograms/ml and ‘C’ if the MIC was greater than 64 micrograms/ml.

The structures appear in SMILES notation. In brackets after ≈: the same amount, converted by molar mass. A value given as a limit tells only on which side of the number the result lay.

`CCCCCCOCCOc1ccc(F)c(C(N)=O)c1F` [Example 85, 2,6-Difluoro-3-[2-(hexyloxy)ethoxy]benzenecarboxamide]: the MIC in assay [1] and in assay [2] was under 8 µg/mL throughout.

Regarding `COc1ccc(-c2nc(COc3ccc(F)c(C(N)=O)c3F)sc2Br)cc1` [Example 158, 3-[5-Bromo-4-(4-methoxy-phenyl)-thiazol-2-ylmethoxy]-2,6-difluoro-benzamide], the MIC in assay [1] and in assay [2] was under 8 µg/mL in each case.

As for `NC(=O)c1c(F)ccc(OCc2cccc(-n3cccc3)c2)c1F` [Example 161, 2,6-Difluoro-3-(3-pyrrol-1-yl-benzyloxy)-benzamide], the MIC in assay [1] and in assay [2] was under 8 µg/mL each time.

For the molecule `NC(=O)c1c(F)ccc(OCc2nc(-c3ccc(OC(F)(F)F)cc3)cs2)c1F` [Example 320, 2,6-Difluoro-3-[4-(4-trifluoromethoxy-phenyl)-thiazol-2-ylmethoxy]-benzamide], the MIC in assay [1] and in assay [2] was under 8 µg/mL throughout.

In the case of `CC(C)(C)c1ccc(-c2noc(COc3ccc(F)c(C(N)=O)c3F)n2)cc1` [Example 249, 3-(3-[4-(tert-Butyl)phenyl]-1,2,4-oxadiazol-5-ylmethoxy)-2,6-difluorobenzenecarboxamide], the MIC in assay [1] and in assay [2] was under 8 µg/mL throughout.

For `NC(=O)c1c(F)ccc(OCc2nc(Cc3ccc(Cl)cc3)no2)c1F` [Example 265, 3-[3-(4-Chlorobenzyl)-1,2,4-oxadiazol-5-yl]methoxy-2,6-difluorobenzenecarboxamide], the MIC in assay [1] is under 8 µg/mL; in assay [2], 16 to 64 µg/mL (≈ 42.1 to 169 µM).

As to `Cc1nn(-c2ccccc2)nc1COc1ccc(F)c(C(N)=O)c1F` [Example 325, 2,6-Difluoro-3-(5-methyl-2-phenyl-2H-[1,2,3]triazol-4-ylmethoxy)-benzamide], the MIC in assay [1] is under 8 µg/mL; in assay [2], 16 to 64 µg/mL (≈ 46.5 to 186 µM).

Take `CC/C=C\CCCCCOc1ccc(F)c(C(N)=O)c1F` [Example 86, 2,6-Difluoro-3-[(Z)-6-nonenyloxy]benzenecarboxamide]: the MIC in assay [1] and in assay [2] was under 8 µg/mL each time.

Consider `CCCCCCOc1cccc(C(N)=O)c1O` [Example 166, 2-Hydroxy-3-Hexoxy-benzamide], for which the MIC in assay [1] and in assay [2] was over 64 µg/mL each time.

Regarding `Cc1cccc2ccc(COc3ccc(F)c(C(N)=O)c3F)nc12` [Example 146, 2,6-Difluoro-3-(8-methyl-quinolin-2-ylmethoxy)-benzamide], the MIC in assay [1] is under 8 µg/mL; in assay [2] it was 16 to 64 µg/mL (≈ 48.7 to 195 µM).

Turning to `NC(=O)c1cccc(OCCCCCCc2ccccc2)c1` [Example 36, 3-[(6-Phenylhexyl)oxy]benzenecarboxamide], the MIC in assay [1] is under 8 µg/mL; in assay [2], over 64 µg/mL.

Consider `CC(C)c1ccc(-c2noc(COc3ccc(F)c(C(N)=O)c3F)n2)cc1` [Example 248, 2,6-Difluoro-3-[3-(4-isopropylphenyl)-1,2,4-oxadiazol-5-yl]methoxybenzenecarboxamide], for which the MIC in assay [1] and in assay [2] was under 8 µg/mL in each case.

Take `CCCCCCCCCOc1ccc(Cl)c(C(N)=O)c1` [Example 68, 2-Chloro-5-(nonyloxy)benzenecarboxamide]: the MIC in assay [1] and in assay [2] was under 8 µg/mL in each case.

Regarding `NC(=O)c1c(F)ccc(OCc2nc3c(Cl)cccc3s2)c1F` [Example 226, 3-[(4-Chloro-1,3-benzothiazol-2-yl)methoxy]-2,6-difluorobenzenecarboxamide], the MIC in assay [1] and in assay [2] was 16 to 64 µg/mL (≈ 45.1 to 180 µM) in each case.

Regarding `NC(=O)c1c(F)ccc(OCc2nc3cc([N+](=O)[O-])ccc3s2)c1F` [Example 117, 2,6-Difluoro-3-(5-nitro-benzothiazol-2-ylmethoxy)-benzamide], the MIC in assay [1] and in assay [2] was under 8 µg/mL in each case.

In the case of `CCCCC#CCCOc1cccc(C(N)=O)c1` [Example 59, 3-(3-Octynyloxy)benzenecarboxamide], the values for the MIC in assay [1] and in assay [2] were under 8 µg/mL and 16 to 64 µg/mL (≈ 65.2 to 261 µM), respectively.

Take `COc1ccc(-c2csc(COc3ccc(F)c(C(N)=O)c3F)n2)cc1` [Example 105, 3-[4-(4-Methoxyphenyl)thiazol-2-ylmethoxy]-2,6-difluoro-benzamide]: the MIC in assay [1] and in assay [2] was under 8 µg/mL in each case.

`NC(=O)c1c(F)ccc(OCc2nc(-c3cccc([N+](=O)[O-])c3)no2)c1F` [Example 259, 2,6-Difluoro-3-[3-(3-nitrophenyl)-1,2,4-oxadiazol-5-yl]methoxybenzenecarboxamide]: the MIC in assay [1] is under 8 µg/mL.

With `NC(=O)c1c(F)ccc(OCc2cccc([N+](=O)[O-])c2)c1F` [Example 332, 2,6-Difluoro-3-(3-nitro-benzyloxy)-benzamide], in assay [1], the MIC is 16 to 64 µg/mL (≈ 51.9 to 208 µM).

On to `CC(C)CCOc1cccc(C(N)=O)c1` [Example 13, 3-(Isopentyloxy)benzenecarboxamide], for which the MIC in assay [1] was 16 to 64 µg/mL (≈ 77.2 to 309 µM).

With `NC(=O)c1c(F)ccc(OCc2nc(-c3cccc(C(F)(F)F)c3)no2)c1F` [Example 258, 2,6-Difluoro-3-(3-[3-(trifluoromethyl)phenyl]-1,2,4-oxadiazol-5-ylmethoxy)benzenecarboxamide], in assay [1], the MIC was under 8 µg/mL.

In the case of `NC(=O)c1c(F)ccc(OCc2nc(-c3cccc(Cl)c3)no2)c1F` [Example 255, 3-[3-(3-Chlorophenyl)-1,2,4-oxadiazol-5-yl]methoxy-2,6-difluorobenzenecarboxamide], in assay [1], the MIC is under 8 µg/mL.

Regarding `CCCCCCC#CCOc1cccc(C(N)=O)c1` [Example 50, 3-(2-Nonynyloxy)benzenecarboxamide], the MIC in assay [1] is under 8 µg/mL.

As for `CCCCOc1cccc(C(N)=O)c1` [Example 7, 3-Butoxybenzenecarboxamide], the MIC in assay [1] was over 64 µg/mL.

`CCCOCCOc1cccc(C(N)=O)c1` [Example 16, 3-(2-Propoxyethoxy)benzenecarboxamide]: in assay [1], the MIC is over 64 µg/mL.

Consider `NC(=O)c1c(F)ccc(OCc2nnc(-c3ccc(Cl)cc3)s2)c1F` [Example 234, 3-[5-(4-Chlorophenyl)-1,3,4-thiadiazol-2-yl]methoxy-2,6-difluorobenzenecarboxamide], for which, in assay [1], the MIC is under 8 µg/mL.

For `CCOC(=O)CCCOc1cccc(C(N)=O)c1` [Example 25, Ethyl 4-[3-(aminocarbonyl)phenoxy]butanoate], the MIC in assay [1] was over 64 µg/mL.

Consider `NC(=O)c1cccc(OCCc2ccc(F)cc2)c1` [Example 34, 3-[(4-Fluorophenethyl)oxy]benzenecarboxamide], for which the MIC in assay [1] was 16 to 64 µg/mL (≈ 61.7 to 247 µM).

As for `CCCCC#CCCCCOc1cccc(C(N)=O)c1` [Example 48, 3-(5-Decynyloxy)benzenecarboxamide], the MIC in assay [1] was under 8 µg/mL.

For `Cc1ccc2nc(COc3ccc(F)c(C(N)=O)c3F)ccc2c1` [Example 97, 2,6-Difluoro-3-(6-methyl-quinolin-2-ylmethoxy)-benzamide], the MIC in assay [1] was under 8 µg/mL.

With `NC(=O)c1c(F)ccc(OCc2nc(-c3ccccc3Cl)no2)c1F` [Example 254, 3-[3-(2-Chlorophenyl)-1,2,4-oxadiazol-5-yl]methoxy-2,6-difluorobenzenecarboxamide], in assay [1], the MIC is under 8 µg/mL.

On to `CCOC(=O)COc1cccc(C(N)=O)c1` [Example 33, Ethyl 2-[3-(aminocarbonyl)phenoxy]acetate], for which the MIC in assay [1] is over 64 µg/mL.

As to `NC(=O)c1c(F)ccc(OCc2ccc3ccccc3c2)c1F` [Example 113, 2,6-Difluoro-3-(naphthalen-2-ylmethoxy)-benzamide], the MIC in assay [1] was under 8 µg/mL.

Turning to `Cc1cccc(-c2ccc3sc(COc4ccc(F)c(C(N)=O)c4F)nc3c2)c1` [Example 142, 2,6-Difluoro-3-(5-m-tolyl-benzothiazol-2-ylmethoxy)-benzamide], the MIC in assay [1] was under 8 µg/mL.

Consider `NC(=O)c1c(F)ccc(OCc2nnc(-c3ccccc3)o2)c1F` [Example 238, 2,6-Difluoro-3-[(5-phenyl-1,3,4-oxadiazol-2-yl)methoxy]benzenecarboxamide], for which, in assay [1], the MIC was 16 to 64 µg/mL (≈ 48.3 to 193 µM).

On to `NC(=O)c1c(F)ccc(OCc2nc(COc3c(Cl)cccc3Cl)no2)c1F` [Example 264, 3-(3-[(2,6-Dichlorophenoxy)methyl]-1,2,4-oxadiazol-5-ylmethoxy)-2,6-difluorobenzenecarboxamide], for which the MIC in assay [1] was 16 to 64 µg/mL (≈ 37.2 to 149 µM).

As for `NC(=O)c1c(F)ccc(OCc2cn3ccccc3n2)c1F` [Example 203, 2,6-Difluoro-3-(imidazo[1,2-a]pyridin-2-ylmethoxy)benzenecarboxamide], the MIC in assay [1] is over 64 µg/mL.

Consider `CC(C)CCCOc1cccc(C(N)=O)c1` [Example 14, 3-[(4-Methylpentyl)oxy]benzenecarboxamide], for which the MIC in assay [1] fell in the range of 16 to 64 µg/mL (≈ 72.3 to 289 µM).

Take `NC(=O)c1cccc(OCC2CC2)c1` [Example 4, 3-(Cyclopropylmethoxy)benzenecarboxamide]: the MIC in assay [1] was over 64 µg/mL.

On to `Cc1cccc2nc(COc3ccc(F)c(C(N)=O)c3F)ccc12` [Example 96, 2,6-Difluoro-3-(5-methyl-quinolin-2-ylmethoxy)-benzamide], for which, in assay [1], the MIC lay in the range of 16 to 64 µg/mL (≈ 48.7 to 195 µM).

Turning to `C=CCOc1cccc(C(N)=O)c1` [Example 6, 3-(Allyloxy)benzenecarboxamide], the MIC in assay [1] was over 64 µg/mL.

As for `NC(=O)c1cccc(OCCCCCc2ccccc2)c1` [Example 21, 3-[(5-Phenylpentyl)oxy]benzenecarboxamide], the MIC in assay [1] was in the range of 16 to 64 µg/mL (≈ 56.5 to 226 µM).
